Assay results reported in patent US8962639B2, “Potassium channel modulators” (AbbVie Inc., priority 2009, dated 2015).

Biological target: T1, human KCNQ2 and KCNQ3 (Homo sapiens, UniProt O43525+O43526)
T1 construct: expressed in transfected cells; host or cells: HEK293
Experiment: KCNQ 2/3 channel activation, thallium flux FLIPR assay (BTC-AM dye) in HEK293 cells
Format: cell-based
Details: for Emax: HEK293, maximum response relative to response of retigabine at 10 μM set at 100%, read-out: Max response; for EC50: HEK293 cells stably expressing human KCNQ2 and KCNQ3, compound incubated 4 minutes, Tl+ flux fluorescence; for Max response: maximum response relative to response of retigabine at 10 μM set at 100%
Method: The following example describes the assay that can be used to identify compounds that activate KCNQ 2/3 channels.
HEK293 cells stably expressing human KCNQ2 and KCNQ3 were seeded in 96-well, black-walled, clear-bottomed, poly-D-lysine coated plates (BD Biosciences, Bedford, Mass.) at a density of 1×10^5 cells per well 24 hours before the assay. On the assay day, BTC-AM dye (Invitrogen, Carlsbad, Calif.) was loaded into the cells by replacing the cell culture medium with 100 μL/well of 4 μM dye in DPBS. Dye loading was allowed to proceed for 2 hours at room temperature and then cells were washed twice in 100 μL/well of assay buffer (in mM: 10 HEPES pH 7.3, 5 glucose, 140 Na-gluconate, 2.5 K-gluconate, 3.6 Ca-gluconate, 2 MgSO4, 0.1 Ouabain) to remove unloaded dye. Cells were incubated in 50 μL of assay buffer before loading onto a FLIPR system (Molecular Devices, Sunnyvale, Calif.). Various concentrations of compounds to be assayed were added to the cells in 50 μL of assay buffer and incubated for 4 minutes. The fluorescence signal was initiated by adding 100 μL of assay buffer containing 6 mM TlNO3 and 10 mM K2SO4. Fluors were excited using the 488-nm line of an argon laser and emission was filtered using a 540±30 nm bandpass filter. Fluorescent signals were recorded for 3 minutes. Responses over baseline values were plotted versus concentrations of test compounds to obtain an EC50 value. The maximum response for each test compound was determined relative to the response produced at 10 μM by retigabine. The maximum response of retigabine at 10 μM was set at 100%.

T1 sequence (O43526 whole entry): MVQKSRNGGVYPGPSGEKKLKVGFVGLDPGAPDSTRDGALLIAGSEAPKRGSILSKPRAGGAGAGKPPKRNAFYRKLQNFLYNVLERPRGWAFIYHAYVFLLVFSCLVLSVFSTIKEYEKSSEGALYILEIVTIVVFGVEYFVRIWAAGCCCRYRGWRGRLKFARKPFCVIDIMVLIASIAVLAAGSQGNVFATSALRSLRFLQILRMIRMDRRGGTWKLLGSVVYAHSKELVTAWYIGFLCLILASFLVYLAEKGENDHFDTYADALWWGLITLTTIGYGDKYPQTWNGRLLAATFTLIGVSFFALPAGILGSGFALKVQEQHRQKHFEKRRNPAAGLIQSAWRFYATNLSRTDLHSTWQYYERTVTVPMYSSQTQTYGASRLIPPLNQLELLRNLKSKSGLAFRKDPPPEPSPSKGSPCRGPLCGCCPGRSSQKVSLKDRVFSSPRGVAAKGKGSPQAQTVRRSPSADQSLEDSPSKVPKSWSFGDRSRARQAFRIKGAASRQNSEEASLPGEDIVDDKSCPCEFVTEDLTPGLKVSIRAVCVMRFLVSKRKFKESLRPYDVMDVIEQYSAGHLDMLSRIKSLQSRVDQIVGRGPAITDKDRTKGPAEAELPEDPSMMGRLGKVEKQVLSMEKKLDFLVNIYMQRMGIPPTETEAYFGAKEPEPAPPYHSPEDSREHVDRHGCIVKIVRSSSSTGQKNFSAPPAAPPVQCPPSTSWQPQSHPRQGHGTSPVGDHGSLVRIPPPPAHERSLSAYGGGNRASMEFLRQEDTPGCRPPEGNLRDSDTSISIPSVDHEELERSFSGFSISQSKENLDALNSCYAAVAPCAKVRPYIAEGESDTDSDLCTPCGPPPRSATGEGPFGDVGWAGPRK
T1 sequence (O43525 whole entry): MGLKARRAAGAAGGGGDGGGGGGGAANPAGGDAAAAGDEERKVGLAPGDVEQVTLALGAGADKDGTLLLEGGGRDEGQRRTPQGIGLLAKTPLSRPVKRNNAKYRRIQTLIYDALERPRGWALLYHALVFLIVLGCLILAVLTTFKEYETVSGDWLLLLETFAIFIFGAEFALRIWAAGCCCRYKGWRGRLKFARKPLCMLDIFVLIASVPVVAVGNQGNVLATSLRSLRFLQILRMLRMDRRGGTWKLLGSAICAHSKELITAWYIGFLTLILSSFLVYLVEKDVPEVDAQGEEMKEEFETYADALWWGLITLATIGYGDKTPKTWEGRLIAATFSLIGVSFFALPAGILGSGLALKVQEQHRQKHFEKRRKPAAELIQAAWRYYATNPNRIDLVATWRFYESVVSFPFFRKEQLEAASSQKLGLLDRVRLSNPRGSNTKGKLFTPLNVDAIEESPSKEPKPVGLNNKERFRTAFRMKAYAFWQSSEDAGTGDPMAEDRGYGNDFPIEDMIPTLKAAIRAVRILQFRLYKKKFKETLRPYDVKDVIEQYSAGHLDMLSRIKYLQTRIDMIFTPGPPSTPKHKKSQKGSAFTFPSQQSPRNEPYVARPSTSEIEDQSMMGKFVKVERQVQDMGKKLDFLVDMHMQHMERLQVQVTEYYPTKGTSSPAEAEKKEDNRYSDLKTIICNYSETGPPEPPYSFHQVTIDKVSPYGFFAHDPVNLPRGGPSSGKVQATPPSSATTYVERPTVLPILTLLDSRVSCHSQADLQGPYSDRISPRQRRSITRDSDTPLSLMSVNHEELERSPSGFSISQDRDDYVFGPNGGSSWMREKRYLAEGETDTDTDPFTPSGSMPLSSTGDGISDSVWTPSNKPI

Row | Structure (SMILES) | Emax | EC50 | Max response
1 | O=C(CC12CC3CC(CC(C3)C1)C2)Nn1cnc2ccccc2c1=O [Example 7, 2-(1-adamantyl)-N-(4-oxoquinazolin-3(4H)-yl)acetamide] | 133% | 116 nM | 
2 | Cc1nc2sc3c(c2c(=O)n1NC(=O)CC12CC4CC(CC(C4)C1)C2)CCC3 [Example 45, 2-(1-adamantyl)-N-(2-methyl-4-oxo-6,7-dihydro-4H-cyclopenta[4,5]thieno[2,3-d]pyrimidin-3(5H)-yl)acetamide] | 19.6% | > 31600 nM | 
3 | CC(C)c1nc2ccccc2c(=O)n1NC(=O)CC12CC3CC(CC(C3)C1)C2 [Example 5, 2-(1-adamantyl)-N-(2-isopropyl-4-oxoquinazolin-3(4H)-yl)acetamide] | 122% | 148 nM | 
4 | O=C(C[C@@H]1C[C@@H]2C=C[C@H]1C2)Nn1c(-c2ccccc2)nc2ccccc2c1=O (racemic) [Example 19, (±)-endo-2-bicyclo[2.2.1]hept-5-en-2-yl-N-(4-oxo-2-phenylquinazolin-3(4H)-yl)acetamide] | 130% | 2280 nM | 
5 | O=C(CC12CC3CC(CC(Cl)(C3)C1)C2)Nn1c(C2CC2)nc2ccccc2c1=O [Example 51, 2-[3-chloro-1-adamantyl]-N-(2-cyclopropyl-4-oxoquinazolin-3(4H)-yl)acetamide] | 152% | 160 nM | 
6 | Cc1nc2cc(Cl)ccc2c(=O)n1NC(=O)CC12CC3CC(CC(C3)C1)C2 [Example 35, 2-(1-adamantyl)-N-(7-chloro-2-methyl-4-oxoquinazolin-3(4H)-yl)acetamide] | 20.8% | > 30000 nM | 
7 | O=C(CC12CC3CC(CC(C3)C1)C2)Nn1cnc2ccc(Cl)cc2c1=O [Example 16, 2-(1-adamantyl)-N-(6-chloro-4-oxoquinazolin-3(4H)-yl)acetamide] | 32.1% | 261 nM | 
8 | CC(C)c1nc2ccccc2c(=O)n1NC(=O)CC1CC2CCC1C2 (single isomer, unassigned; (+)) [Example 30, (+)-exo-2-[bicyclo[2.2.1]hept-2-yl]-N-(2-isopropyl-4-oxoquinazolin-3(4H)-yl)acetamide] |  | 47.7 nM | 145%
9 | CC(C)c1nc2ccccc2c(=O)n1NC(=O)CC1CC2C=CC1C2 (racemic) [Example 18, (±)-endo-2-bicyclo[2.2.1]hept-5-en-2-yl-N-(2-isopropyl-4-oxoquinazolin-3(4H)-yl)acetamide] | 163% | 747 nM | 
10 | O=C(CCC12CC3CC(CC(C3)C1)C2)Nn1c(-c2ccccc2)nc2ccccc2c1=O [Example 15, 3-(1-adamantyl)-N-(4-oxo-2-phenylquinazolin-3(4H)-yl)propanamide] | 79.7% | 309 nM | 
11 | O=C(Nn1c(-c2ccccc2)nc2ccccc2c1=O)[C@@H]1[C@H]2[C@@H]3CC[C@@H](C3)[C@@H]12 [Example 39, (exo,exo)-N-(4-oxo-2-phenylquinazolin-3(4H)-yl)tricyclo[3.2.1.0^2,4]octane-3-carboxamide] | -23.5% | > 30000 nM | 
12 | CC(C)c1nc2ccccc2c(=O)n1NC(=O)CC1CC2CCC1C2 (racemic) [Example 11, (±)-exo-2-bicyclo[2.2.1]hept-2-yl-N-(2-isopropyl-4-oxoquinazolin-3(4H)-yl)acetamide] |  | 90.6 nM | 175%
13 | CCc1nc2sccc2c(=O)n1NC(=O)CC12CC3CC(CC(C3)C1)C2 [Example 14, 2-(1-adamantyl)-N-(2-ethyl-4-oxothieno[2,3-d]pyrimidin-3(4H)-yl)acetamide] | 120% | 691 nM | 
14 | CC(C)c1nc2ccccc2c(=O)n1NC(=O)CC1C2CCCC1CCC2 (stereo not shown) [Example 56, 2-bicyclo[3.3.1]non-9-yl-N-(2-isopropyl-4-oxoquinazolin-3(4H)-yl)acetamide] | 158% | 104 nM | 
15 | CCc1nc2ccccc2c(=O)n1NC(=O)C[C@@H]1C[C@@H]2CC[C@@H](C2)C1 [Example 55, endo 2-[bicyclo[3.2.1]oct-3-yl]-N-(2-ethyl-4-oxoquinazolin-3(4H)-yl)acetamide] | 150% | 417 nM | 
16 | O=C(CC12CC3CC(CC(C3)C1)C2)Nn1c(COc2ccccc2)nc2ccccc2c1=O [Example 25, 2-(1-adamantyl)-N-[4-oxo-2-(phenoxymethyl)quinazolin-3(4H)-yl]acetamide] | 118% | 3010 nM | 

Row | Structure (SMILES) | Emax | EC50 | Max response
17 | O=C(CCC1CCCC1)Nn1c(C23CC4CC(CC2C4)C3)nc2ccccc2c1=O [Example 3, 3-cyclopentyl-N-(2-hexahydro-2,5-methanopentalen-3a(1H)-yl-4-oxoquinazolin-3(4H)-yl)propanamide] | 171% | 277 nM | 
18 | CC(C)c1nc2ccccc2c(=O)n1NC(=O)[C@@H]1[C@H]2[C@@H]3CC[C@@H](C3)[C@@H]12 [Example 59, (exo,exo)-N-(2-isopropyl-4-oxoquinazolin-3(4H)-yl)tricyclo[3.2.1.0^2,4]octane-3-carboxamide] | 16.5% | > 31600 nM | 
19 | O=C(CC12CC3CC(CC(C3)C1)C2)Nn1c(=O)[nH]c2ccccc2c1=O [Example 28, 2-(1-adamantyl)-N-(2,4-dioxo-1,4-dihydroquinazolin-3(2H)-yl)acetamide] | 93.3% | 1750 nM | 
20 | O=C(Nn1c(-c2ccccc2)nc2ccccc2c1=O)[C@H]1C[C@@H]2C=C[C@H]1C2 (racemic) [Example 34, (±)-(exo)-N-(4-oxo-2-phenylquinazolin-3(4 H)-yl)bicyclo[2.2.1]hept-5-ene-2-carboxamide] | 4.46% | 17300 nM | 
21 | O=C(Cc1ccc(Cl)cc1)Nn1c(C23CC4CC(CC2C4)C3)nc2ccccc2c1=O [Example 2, 2-(4-chlorophenyl)-N-(2-hexahydro-2,5-methanopentalen-3a(1H)-yl-4-oxoquinazolin-3(4H)-yl)acetamide] | 140% | 198 nM | 
22 | O=C(CC12CC3CC(CC(C3)C1)C2)Nn1cnc2sc(-c3ccccc3)cc2c1=O [Example 37, 2-(1-adamantyl)-N-(4-oxo-6-phenylthieno[2,3-d]pyrimidin-3(4H)-yl)acetamide] | 9.51% | > 30000 nM | 
23 | CCc1nc2sccc2c(=O)n1NC(=O)CC1CC2CCC1C2 (racemic) [Example 24, (±)-exo-2-bicyclo[2.2.1]hept-2-yl-N-(2-ethyl-4-oxothieno[2,3-d]pyrimidin-3(4H)-yl)acetamide] | 158% | 1130 nM | 
24 | O=C(Nn1c(-c2ccccc2)nc2ccccc2c1=O)[C@@H]1C[C@@H]2C=C[C@H]1C2 (racemic) [Example 33, (±)-(endo)-N-(4-oxo-2-phenylquinazolin-3(4H)-yl)bicyclo[2.2.1]hept-5-ene-2-carboxamide] | 65.4% | 840 nM | 
25 | CC(C)Sc1nc2sc(-c3ccccc3)cc2c(=O)n1NC(=O)CC12CC3CC(CC(C3)C1)C2 [Example 40, 2-(1-adamantyl)-N-[2-(isopropylthio)-4-oxo-6-phenylthieno[2,3-d]pyrimidin-3(4H)-yl]acetamide] | 19.2% | > 30000 nM | 
26 | CCc1nc2ccccc2c(=O)n1NC(=O)CC1C2CCCC1CCC2 (stereo not shown) [Example 57, 2-bicyclo[3.3.1]non-9-yl-N-(2-ethyl-4-oxoquinazolin-3(4H)-yl)acetamide] | 148% | 344 nM | 
27 | CC(=O)Nn1c(C23CC4CC(CC2C4)C3)nc2ccccc2c1=O [Example 4, N-(2-hexahydro-2,5-methanopentalen-3a(1H)-yl-4-oxoquinazolin-3(4H)-yl)acetamide] | 60.4% | 2720 nM | 
28 | CC(C)c1nc2ccccc2c(=O)n1NC(=O)[C@@H]1C[C@@H]2C=C[C@H]1C2 (racemic) [Example 31, (±)-(endo)-N-(2-isopropyl-4-oxoquinazolin-3(4H)-yl)bicyclo[2.2.1]hept-5-ene-2-carboxamide] | 140% | 415 nM | 
29 | O=C(CC12CC3CC(CC(Cl)(C3)C1)C2)Nn1c(C2CC2)nc2cc(C(F)(F)F)ccc2c1=O [Example 50, 2-[3-chloro-1-adamantyl]-N-[2-cyclopropyl-4-oxo-7-(trifluoromethyl)quinazolin-3(4H)-yl]acetamide] | -0.535% | > 31600 nM | 
30 | CCc1nc2sccc2c(=O)n1NC(=O)CC12CC3CC(CC(Cl)(C3)C1)C2 [Example 52, 2-[3-chloro-1-adamantyl]-N-(2-ethyl-4-oxothieno[2,3-d]pyrimidin-3(4H)-yl)acetamide] | 109% | 7910 nM | 
31 | O=C(CC12CC3CC(CC(C3)C1)C2)Nn1cnc2scc(-c3ccc(F)cc3)c2c1=O [Example 27, 2-(1-adamantyl)-N-[5-(4-fluorophenyl)-4-oxothieno[2,3-d]pyrimidin-3(4H)-yl]acetamide] | 199% | 846 nM | 
32 | CC(C)c1nc2ccccc2c(=O)n1NC(=O)CC1CC2CCC1C2 (single isomer, unassigned; (-)) [Example 29, (−)-exo-2-[bicyclo[2.2.1]hept-2-yl]-N-(2-isopropyl-4-oxoquinazolin-3(4H)-yl)acetamide] | 136% | 16.7 nM | 
